Literature values in publication PMC3800486 (Amino acids, 2013).

Tested on: polo-like kinase 1 (Plk1) polo box domain (PBD)
Settings: previously shown; ref Yun et al. 2009; Liu et al. 2011; Liu et al. 2012b, a

Substance: Ac-Pro-Leu-His-Ser-Pmab-amide
- affinity for the Plk1 PBD (in words): good affinity
